Assay results reported in patent US6710048B2, “Pyrazine derivatives as modulators of tyrosine kinases” (Ortho-McNeil Pharmaceutical, Inc., priority 2000, dated 2004).
Read-outs that look alike come from different tables or passages of the source.

Molecular target: T1, VEGF-R (vascular endothelial growth factor receptor-2) (Rattus norvegicus, UniProt O08775)
T1 construct: polyhistidine (6xHis) (N)
Assay: VEGF-R screening assay (33P FlashPlate kinase assay)
Type: biochemical
Procedure: A kinase reaction mixture was prepared containing 50 mM Tris-HCl pH=8, 10 mM MgCl2, 0.1 mM NAPO4, 1 mM DTT, 10 μM ATP, 0.025 μM biotinylated peptide substrate and 0.8 μCuries per well ^33P-γ-ATP [2000-3000 Ci/mmol]. 70 μl of the kinase reaction mixture was dispensed into the well of a streptavidin coated FlashPlate™ (Cat. # SMP103, NEN, Boston, Mass.). Then 1 μl of test compound stock in 100% DMSO was added to the wells resulting in a final concentration of 1% DMSO in the reaction with a 100 μl final reaction volume. Next, soluble rat tyrosine kinase containing an N-terminal 6×HIS tag was diluted in 50 mM Tris-HCl pH=8.0, 0.1% BSA at a concentration of 5 ng per microliter and 30 μl (150 ng enzyme per test well) was added to each well to initiate the reaction. The reaction was incubated for one hour at 30° C. At the end of the 1-hour incubation, the reaction was terminated by aspirating the reaction mixture from the plate and washing the wells twice with PBS containing 100 mM EDTA. The PLCI biotinylated peptide substrate becomes immobilized on the Flashplate™ and the incorporation of ^33P-γ-ATP was measured by reading the plate on a scintillation counter. Inhibition of the enzymatic activity of the VEGF-R was measured by observing a reduced amount of ^33P-γ-ATP incorporated into the immobilized peptide.
The term n.d. means not tested.
Assays to test compound inhibition of other kinases were preformed using methods that measure the amount of phosphorylation of a biotinylated peptide substrate. Biotinylated peptide substrates were selected from the literature as appropriate for the enzyme being evaluated. The general procedure used to assay for kinase activity is as follows: A kinase reaction mix was prepared in 50 mM Tris-HCl pH=8, 10 mM MgCl2, 0.1 mM NaVO4, 1 mM DTT, 5-10 μM ATP, 0.25-1 μM biotinylated peptide substrate, 0.2-0.8 μCuries per well ^33P-γ-ATP [2000-3000 Ci/mmol]. Assay conditions vary slightly for each protein kinase, for example, insulin receptor kinase requires 10 mM MnCl2 for activity and Calmodulin-dependent protein kinase requires calmodulin and 2 mM CaCl2. The reaction mixture was dispensed into the wells of a streptavidin coated Flashplate and 1 μl drug stock in 100% DMSO was added to a 100 μl reaction volume resulting in a final concentration of 1% DMSO in the reaction. Enzyme was diluted in 50 mM Tris-HCl pH=8.0, 0.1% BSA and added to each well. The reaction was incubated for one hour at 30° C. in the presence of compound. After one hour the reaction mix was aspirated from the plate and the plate was washed with PBS containing 100 mM EDTA. The plate was read on a scintillation counter to determine ^33P-γ-ATP incorporated into the immobilized peptide. Test compounds were assayed in duplicate at 8 concentrations [100 tM, 10 μM, 1 μM, 100 nM, 10 nM, 1 nM, 100 μM, 10 μM]. A maximum and minimum signal for the assay was determined on each plate. The IC50 was calculated from the dose response curve of the percent inhibition of the maximum signal in the assay according to the formula [max signal−background/test compound signal−background (100)=% inhibition] by graphing the percent inhibition against the log concentration of test compound. Known inhibitor compounds appropriate for the kinase being assayed were also included on each plate.
VEGF-R (vascular endothelial growth factor receptor-2) is a fusion protein containing a polyhistidine tag at the N-terminus followed by amino acids 786-1343 of the rat VEGF-R2 kinase domain (GenBank Accession #U93306). CDK1 (cyclin dependent kinase 1) is isolated from insect cells expressing both the human CDK1 catalytic subunit and its positive regulatory subunit cyclin B (New England Biolabs, Beverly, Mass., Cat. #6020). CDK4 (cyclin dependent kinase 4) contains amino acids 769 to 921 of the mouse […] protein found in the GST-retinoblastoma protein construct (Santa Cruz Biotechnology, Santa Cruz, Calif.; Cat. #SC-4112). […]

[1] = Table 4 kinase selectivity, read-out: IC50, Assay 1 VEGF-R
[2] = Tables 1-3, >10 or >100 = no 50% inhibition at highest dose tested, read-out: VEGF-R IC50

T1 sequence (O08775 786-1343): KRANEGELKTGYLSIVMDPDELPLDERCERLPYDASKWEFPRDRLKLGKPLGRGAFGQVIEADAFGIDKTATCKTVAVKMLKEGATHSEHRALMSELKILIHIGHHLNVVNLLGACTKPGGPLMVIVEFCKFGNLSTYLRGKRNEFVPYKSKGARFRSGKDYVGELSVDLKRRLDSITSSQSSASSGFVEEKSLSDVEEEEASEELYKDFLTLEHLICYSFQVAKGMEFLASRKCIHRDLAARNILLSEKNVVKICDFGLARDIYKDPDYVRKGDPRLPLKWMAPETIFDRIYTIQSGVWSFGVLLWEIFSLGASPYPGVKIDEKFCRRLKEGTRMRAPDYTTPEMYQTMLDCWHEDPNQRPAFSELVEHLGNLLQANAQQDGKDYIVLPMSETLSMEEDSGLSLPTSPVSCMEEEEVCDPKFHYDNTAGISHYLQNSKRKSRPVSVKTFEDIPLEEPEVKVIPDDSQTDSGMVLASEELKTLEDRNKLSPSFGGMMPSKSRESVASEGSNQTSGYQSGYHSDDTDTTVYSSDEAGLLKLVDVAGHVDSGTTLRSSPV

IC50 [1] [nM] | IC50 [2] [nM] | SMILES
42 | 80 | OCCCNc1cncc(-c2cncc(Nc3cccc(Cl)c3)n2)c1 [Cmd 4]
59 | 60 | OCCCCNc1cncc(-c2cncc(Nc3cccc(Cl)c3)n2)c1 [Cmd 32]
70 | 70 | CN(C)CCNc1cncc(-c2cncc(Nc3cccc(Cl)c3)n2)c1 [Cmd 33, N′-[5-[6-[(3-chlorophenyl)amino]pyrazinyl]-3-pyridinyl]-N^2,N^2-dimethyl-1,2-ethanediamine]
52 | 52 | Clc1cccc(Nc2cncc(-c3cncc(NCCCc4ccncc4)c3)n2)c1 [Cmd 71]
89 | 89 | Clc1cccc(Nc2cncc(-c3cncc(NCCCc4cccnc4)c3)n2)c1 [Cmd 72]
105 | 105 | Clc1cccc(Nc2cncc(-c3cncc(NCCCN4CCCCC4)c3)n2)c1 [Cmd 73]
79 | 79 | Clc1cccc(Nc2cncc(-c3cncc(NCCCn4cccn4)c3)n2)c1 [Cmd 75]
52 | 52 | Clc1cccc(Nc2cncc(-c3cncc(NCCCn4cncn4)c3)n2)c1 [Cmd 76]

SMILES | IC50 [1] [nM] | IC50 [2] [nM]
CN(C)CCCNc1cncc(-c2cncc(Nc3cccc(Cl)c3)n2)c1 [Cmd 35] | 94 | 90
O=C(NCCCO)c1cncc(-c2cncc(Nc3cccc(Cl)c3)n2)c1 [Cmd 39] | 2500 | 2500
